2 compounds from article PMC7340027 (Cell Reports, 2020) can be followed below.

Where two headings read alike, the source gives them in different places. Marks after values point to notes of the source that are not given here.

For series [1], the system named is Calu3 2B4 cells.
For series [2], the system named is Calu3 2B4 cells. The following applies: human.
For series [3], the system named is Vero E6 cells.
The test system of series [4] is SARS-CoV-2. As to the kind of experiment: microbe, parasite or virus in culture. It counts as cell-based, SARS-CoV-2 clinical isolate 2019-nCoV/USA-WA1/2020.
The subject of series [5] is SARS-CoV-2. As to the kind of experiment: microbe, parasite or virus in culture. The format is cell-based, SARS-CoV-2 clinical isolate 2019-nCoV/USA-WA1/2020. This is another data set of the same source.
Series [6] relates to HAE cultures. The following applies: female, human.
Series [7] has as its system Vero E6 cells. This is another data set of the same source.
The subject of series [8] is HAE cultures.
The subject of series [9] is SARS-CoV-2. The format is cell-based, SARS-CoV-2 clinical isolate 2019-nCoV/USA-WA1/2020.
[10] abbreviates: Severe acute respiratory syndrome coronavirus 2, Calu-3 2B4, read-out: EC90 (infectious viral titer).
[11] abbreviates: Severe acute respiratory syndrome coronavirus 2, Calu-3 2B4, read-out: EC90 (qRT-PCR).
The mark [12] stands for this setting: Severe acute respiratory syndrome coronavirus 2, Calu-3 2B4, read-out: Genome copy EC50.
The mark [13] stands for this setting: Severe acute respiratory syndrome coronavirus 2, Calu-3 2B4, read-out: Plaque assay EC50.

Take `N#C[C@@]1(c2ccc3c(N)ncnn23)O[C@H](CO)[C@@H](O)[C@H]1O` [GS-441524]: the cytotoxicity entry in the series with Calu3 2B4 cells [1] and in the series with Vero E6 cells [3] was “No significant cytotoxicity” each time. In the series with Calu3 2B4 cells [2], the “RDV-TP at 24 h” value was 0.85 ± 0.16 ^e pmol/million cells. The concentration for an effect of 90% (EC90) (usually the concentration needed for an effect of 90%) in the series on SARS-CoV-2 [4] (setting [10]) is 1340 nM; in the series on SARS-CoV-2 [4] (setting [11]) it was 1370 nM; in the series on SARS-CoV-2 [5] (Severe acute respiratory syndrome coronavirus 2, Vero C1008, read-out: EC90 (infectious viral titer)), 710 nM; in the series on SARS-CoV-2 [5] (Severe acute respiratory syndrome coronavirus 2, Vero C1008, read-out: EC90 (qRT-PCR)), 800 nM. Further, the 50% effective concentration (EC50) (usually the concentration at which the effect is half-maximal) in the series with SARS-CoV-2 [4] (setting [12]) is 1090 nM; in the series with SARS-CoV-2 [4] (setting [13]), 620 nM.

Regarding `CCC(CC)COC(=O)[C@H](C)N[P@](=O)(OC[C@H]1O[C@@](C#N)(c2ccc3c(N)ncnn23)[C@H](O)[C@@H]1O)Oc1ccccc1` [RDV, Remdesivir], the results for the cytotoxicity entry in the series with Calu3 2B4 cells [1], in the series on Vero E6 cells [3] and in the series with HAE cultures [8] were “No significant cytotoxicity”, “No significant cytotoxicity” and “did not cause cytotoxicity”, respectively. Further, the “difference in RDV-TP between the two HAE donor cultures” value with HAE cultures [6] was “less than 3 fold”. In addition, the figures for the 90% effect concentration (EC90) in the series on SARS-CoV-2 [4] (setting [10]) and in the series with SARS-CoV-2 [4] (setting [11]) were 2480 nM and 1280 nM, respectively. In addition, the 50% effective concentration (EC50) in the series with SARS-CoV-2 [4] (setting [12]) is 600 nM; in the series on SARS-CoV-2 [4] (setting [13]), 280 nM. In addition, in the series with Vero E6 cells [7] (African green monkey), the “RDV-TP at 24 h” value was 0.50 ± 0.15 ^d pmol/million cells. Also, in the series with Vero E6 cells [7] (African green monkey), the “RDV-TP levels in Vero E6 cells lower than in HAE cultures” value is roughly 20 fold. Further, in the series on Vero E6 cells [7] (African green monkey (Vero E6) and human (Calu3 2B4)), the “RDV-TP levels in Vero E6 cells lower than in Calu3 2B4” value is “approximately 4 fold”. Besides, the “inhibition of infectious virus production” value in the series with SARS-CoV-2 [9] is given as “more than 100 fold”.
